Reference: patent US7704978B2, “Methods for treating neuropsychiatric disorders” (The General Hospital Corporation, priority 1998, dated 2010)
Marks after values point to notes of the source that are not given here.

Key:
[1] = tested on: Schizophrenia Patients; assay: Double-blind, placebo-controlled 6-week treatment of schizophrenia patients: clinical symptoms and cognition (SANS, PANSS, CGI, Wisconsin Card Sort Test); format: in vivo, human; details: for cognition, PANSS-cognitive subscale and Wisconsin Card Sort Test: 6 weeks of treatment; for WCST (Wisconsin Card Sort Test), change: initiation versus end of the 6-week study; for WCST (Wisconsin Card Sort Test), change / Cognitive symptoms (PANSS-cognitive subscale), change / Positive Symptoms (PANSS-positive subscale), change / reduction of the negative symptoms (on the SANS scale) / reduction of the positive symptoms (on the PANSS-positive subscale) / CGI, score after treatment: D-serine 30, D-alanine 60-100, N-methylglycine 30 mg/kg/day; for Negative Symptoms (SANS), change / Cognitive symptoms (PANSS-cognitive subscale), change / Positive Symptoms (PANSS-positive subscale), change / reduction of the negative symptoms (on the SANS scale) / reduction of the positive symptoms (on the PANSS-positive subscale): once a day by mouth for 6 weeks; for Negative Symptoms (SANS), change: D-serine 30 mg/kg/day, D-alanine 60-100 mg/kg/day, N-methylglycine 30 mg/kg/day, added to stable antipsychotic; for CGI, score after treatment: value after the arrow: after 6 weeks, once a day by mouth; for CGI, baseline score: value before the arrow: baseline of the treatment group
Source text: (§1) This study employed 37 patients who were diagnosed as having schizophrenia. All patients fulfilled the DSM-IV diagnosis of schizophrenia (APA, 1994, Diagnostic and Statistical Manual of Mental Disorders, Fourth Edition, Washington, D.C.). All of the patients also fulfilled the criteria of primary deficit syndrome, with a SANS score of more than 40 (Kirkpatrick et al., 1989, Psychiatry Research 30:119-123; Andreasen, 1983, Scales for the Assessment of Negative Symptoms (SANS), Iowa City, Iowa). All of the patients were poorly responsive to treatment by other antipsychotic drugs, and had been kept on a stable dose of an antipsychotic drug for at least 3 months prior to enrollment in this study.
(§2) Several scales were used to assess the severity of the disorder in each patient. At the beginning of the study (i.e., the baseline), the PANSS, SANS, and […] were used. Each scale also was completed at the end of each 2-week period throughout the study. These assessments were performed by a psychiatrist who was blind to the treatment assignment. The Wisconsin Card Sort Test was used to provide a cognitive rating of the patients; in general, schizophrenic patients perform poorly on this test. The Wisconsin Card Sort Test was administered only at the initiation of the study and at the end of the 6-week study. To measure side effects, the Simpson-Angus Scale was used to measure extrapyramidal symptoms (EPS; Simpson et al., 1970, Acta Psychiatrica Scandinavia Suppl. 212:11-19). The Abnormal Involuntary Movement Scale (AIMS) was used to measure dyskinesia (Simpson et al., 1970, Acta Psychiatrica Scandinavia Suppl. 212:11-19). The Barnes Scale was used to measure akathesia (Barnes, 1989, Brit. J. Psychiatry 154:672-676). The side effects of D-serine, D-alanine, and N-methylglycine treatments were assessed biweekly according to the UKU side effects rating scale (Scandinavian Society of Psychopharmacology Committee of Clinical Investigation: The UKU side effect rating scale: scale for the registration of unwanted effects of psychotropics. Acta. Psychiatr. Scand. 1987; Suppl. 334:81-94).
(§3) Using double-blind conditions, the patients were randomly assigned to receive placebo (fruit juice), D-serine (30 mg/kg/day), D-alanine (60-100 mg/kg/day), or N-methylglycine (30 mg/kg/day) once a day by mouth for a period of 6 weeks. As indicated by the results shown in Table 1, treatment with D-serine, D-alanine, or N-methylglycine improved the schizophrenic symptoms and cognitive deficit of the patients. […] These reductions in the negative and positive symptoms represented clinically significant improvement.

[2] = tested on: Schizophrenia Patients; details: human, in vivo; for AIMS (dyskinesia), score after treatment / Barnes Scale (akathesia), score after treatment / EPS (Simpson-Angus Scale), score after treatment: 6 weeks
Source text: as §1, §2, §3

SMILES	cognition, PANSS-cognitive subscale and Wisconsin Card Sort Test [1]	WCST (Wisconsin Card Sort Test), change [1]	Negative Symptoms (SANS), change [1]	Cognitive symptoms (PANSS-cognitive subscale), change [1]	Positive Symptoms (PANSS-positive subscale), change [1]	reduction of the negative symptoms (on the SANS scale) [1]	reduction of the positive symptoms (on the PANSS-positive subscale) [1]	CGI, score after treatment [1]	CGI, baseline score [1]	AIMS (dyskinesia), baseline score [2]	Barnes Scale (akathesia), baseline score [2]	EPS (Simpson-Angus Scale), baseline score [2]	side effects, UKU scale [2]	significant side effects after treatment of schizophrenia patients [2]	tardive dyskinesia, extrapyramidal and akathesia symptoms [2]	AIMS (dyskinesia), score after treatment [2]	Barnes Scale (akathesia), score after treatment [2]	EPS (Simpson-Angus Scale), score after treatment [2]
C[C@@H](N)C(=O)O [D-alanine]	improved cognition	+0.5* category	−12%*	−11%*	−11%*	11%	12%	2.8	3.9	0.5	0.4	3.1-->3.1	no side effects were noted	no significant side effects were detected	no newly emergent tardive dyskinesia or worsening of extrapyramidal or akathesia symptoms	0.1	0.6	3.1-->3.1
N[C@H](CO)C(=O)O [D-serine]	improved cognition	+0.9 category	−21%*	−12%*	−17%*	21%	17%	2.6	4.8	0.3-->0.3	0.4	1.4	no side effects were noted	no significant side effects were detected	no newly emergent tardive dyskinesia or worsening of extrapyramidal or akathesia symptoms	0.3-->0.3	0.8	1.7
CNCC(=O)O [N-methylglycine]	improved cognition	+0.7* category	−20%*	−12%*	−15%*	20%	15%	2.7	4.2	0.4	0.5	2.1-->2.1	no side effects were noted	no significant side effects were detected	no newly emergent tardive dyskinesia or worsening of extrapyramidal or akathesia symptoms	0.3	0.6	2.1-->2.1
